In publication PMC9866191, “Novel 9-Benzylaminoacridine Derivatives as Dual Inhibitors of Phosphodiesterase 5 and Topoisomerase II for the Treatment of Colon Cancer” (Molecules, 2023):

Columns and labels:
LOX IMVI = assay: NCI-60 one-dose screen; type: cell-based; conditions: Homo sapiens, Melanoma panel, single dose 10^−5 M, read-out: Growth inhibition %
CCD-966SK = assay: MTT cell proliferation assay, CCD-966SK; conditions: CCD966SK skin fibroblast; 10 µM; 72 h MTT
NCI/ADR-RES = assay: NCI-60 one-dose screen; type: cell-based; conditions: Homo sapiens, Ovarian Cancer panel, single dose 10^−5 M, read-out: Growth inhibition %
RPMI-8226 = assay: NCI-60 one-dose screen; type: cell-based; conditions: Homo sapiens; RPMI-8226, Leukemia panel; single dose 10^−5 M; read-out: Growth inhibition %
HS 578T = assay: NCI-60 one-dose screen; type: cell-based; conditions: Homo sapiens, Breast Cancer panel, single dose 10^−5 M, read-out: Growth inhibition %
DU-145 = assay: NCI-60 one-dose screen; type: cell-based; conditions: Homo sapiens; DU-145, Prostate Cancer panel; single dose 10^−5 M; read-out: Growth inhibition %
KM12 = assay: NCI-60 one-dose screen; type: cell-based; conditions: Homo sapiens; KM12, Colon Cancer panel; single dose 10^−5 M; read-out: Growth inhibition %
SK-MEL-28 = assay: NCI-60 one-dose screen; type: cell-based; conditions: Homo sapiens; SK-MEL-28, Melanoma panel; single dose 10^−5 M; read-out: Growth inhibition %
HT29 = assay: NCI-60 one-dose screen; type: cell-based; conditions: Homo sapiens, HT-29; HT29, Colon Cancer panel; single dose 10^−5 M; read-out: Growth inhibition %
OVCAR-5 = assay: NCI-60 one-dose screen; type: cell-based; conditions: Homo sapiens; OVCAR-5, Ovarian Cancer panel; single dose 10^−5 M; read-out: Growth inhibition %
T-47D = assay: NCI-60 one-dose screen; type: cell-based; conditions: Homo sapiens, T47D, Breast Cancer panel, single dose 10^−5 M, read-out: Growth inhibition %
HL-60(TB) = assay: NCI-60 one-dose screen; type: cell-based; conditions: Homo sapiens, Leukemia panel, single dose 10^−5 M, read-out: Growth inhibition %
OVCAR-3 = assay: NCI-60 one-dose screen; type: cell-based; conditions: Homo sapiens; OVCAR-3, Ovarian Cancer panel; single dose 10^−5 M; read-out: Growth inhibition %
SK-MEL-2 = assay: NCI-60 one-dose screen; type: cell-based; conditions: Homo sapiens; SK-MEL-2, Melanoma panel; single dose 10^−5 M; read-out: Growth inhibition %
786-0 = assay: NCI-60 one-dose screen; type: cell-based; conditions: Homo sapiens; 786-0, Renal Cancer panel; single dose 10^−5 M; read-out: Growth inhibition %
SF-295 = assay: NCI-60 one-dose screen; type: cell-based; conditions: Homo sapiens; SF-295, CNS Cancer panel; single dose 10^−5 M; read-out: Growth inhibition %
SR = assay: NCI-60 one-dose screen; type: cell-based; conditions: Homo sapiens, Leukemia panel, single dose 10^−5 M, read-out: Growth inhibition %
CAKI-1 = assay: NCI-60 one-dose screen; type: cell-based; conditions: Homo sapiens; CAKI-1, Renal Cancer panel; single dose 10^−5 M; read-out: Growth inhibition %
PC-3 = assay: NCI-60 one-dose screen; type: cell-based; conditions: Homo sapiens; PC-3, Prostate Cancer panel; single dose 10^−5 M; read-out: Growth inhibition %
TK-10 = assay: NCI-60 one-dose screen; type: cell-based; conditions: Homo sapiens; TK-10, Renal Cancer panel; single dose 10^−5 M; read-out: Growth inhibition %
UACC-62 = assay: NCI-60 one-dose screen; type: cell-based; conditions: Homo sapiens; UACC-62, Melanoma panel; single dose 10^−5 M; read-out: Growth inhibition %
NCI-H322M = assay: NCI-60 one-dose screen; type: cell-based; conditions: Homo sapiens, Non-small cell lung panel, single dose 10^−5 M, read-out: Growth inhibition %
SNB-19 = assay: NCI-60 one-dose screen; type: cell-based; conditions: Homo sapiens; SNB-19, CNS Cancer panel; single dose 10^−5 M; read-out: Growth inhibition %
MDA-MB-468 = assay: NCI-60 one-dose screen; type: cell-based; conditions: Homo sapiens; MDA-MB-468, Breast Cancer panel; single dose 10^−5 M; read-out: Growth inhibition %
MDA-MB-435 = assay: NCI-60 one-dose screen; type: cell-based; conditions: Homo sapiens; MDA-MB-435, Melanoma panel; single dose 10^−5 M; read-out: Growth inhibition %
MCF7 = assay: NCI-60 one-dose screen; type: cell-based; conditions: Homo sapiens; MCF7, Breast Cancer panel; single dose 10^−5 M; read-out: Growth inhibition %
HCT-15 = assay: NCI-60 one-dose screen; type: cell-based; conditions: Homo sapiens; HCT-15, Colon Cancer panel; single dose 10^−5 M; read-out: Growth inhibition %
SF-268 = assay: NCI-60 one-dose screen; type: cell-based; conditions: Homo sapiens; SF-268, CNS Cancer panel; single dose 10^−5 M; read-out: Growth inhibition %
CCRF-CEM = assay: NCI-60 one-dose screen; type: cell-based; conditions: Homo sapiens, Leukemia panel, single dose 10^−5 M, read-out: Growth inhibition %
HCT-116 = assay: MTT cell proliferation assay, HCT-116; conditions: for % Inhibition at 10 µM: 72 h MTT, means ± SD; for IC50: read-out: IC50 μM, 72 h MTT, means ± SD, three experiments
IGROV1 = assay: NCI-60 one-dose screen; type: cell-based; conditions: Homo sapiens, IGROV-1; IGROV1, Ovarian Cancer panel; single dose 10^−5 M; read-out: Growth inhibition %

Compound | inhibition at 10 µM (LOX IMVI) [%] | % Inhibition at 10 µM (CCD-966SK) [%] | inhibition at 10 µM (NCI/ADR-RES) [%] | inhibition at 10 µM (RPMI-8226) [%] | inhibition at 10 µM (HS 578T) [%] | inhibition at 10 µM (DU-145) [%] | inhibition at 10 µM (KM12) [%] | inhibition at 10 µM (SK-MEL-28) [%] | inhibition at 10 µM (HT29) [%] | inhibition at 10 µM (OVCAR-5) [%] | inhibition at 10 µM (T-47D) [%] | inhibition at 10 µM (HL-60(TB)) [%] | inhibition at 10 µM (OVCAR-3) [%] | inhibition at 10 µM (SK-MEL-2) [%] | inhibition at 10 µM (786-0) [%] | inhibition at 10 µM (SF-295) [%] | inhibition at 10 µM (SR) [%] | inhibition at 10 µM (CAKI-1) [%] | inhibition at 10 µM (PC-3) [%] | inhibition at 10 µM (TK-10) [%] | further results
Fc1ccc(CNc2c3ccccc3nc3ccccc23)c(F)c1 [Compound 21, Acridin-9-yl-(2,4-difluorobenzyl)-amine] | 78.5 | 30.94 ± 0.86 | 63.8 | 71.7 | 24.6 | 49.1 | 40 | 9.61 | 78.2 | 48.3 | 52.6 | 41.7 | 29.8 | 0.35 | 52.4 | 59.6 | 74.8 | 64.7 | 31.1 | 39 | inhibition at 10 µM (UACC-62): 40.9%; inhibition at 10 µM (NCI-H322M): 50.8%; inhibition at 10 µM (SNB-19): 58.5%; inhibition at 10 µM (MDA-MB-468): 104%; inhibition at 10 µM (MDA-MB-435): 33.5%; inhibition at 10 µM (MCF7): 89.8%; inhibition at 10 µM (HCT-15): 71.3%; inhibition at 10 µM (SF-268): 31.4%; inhibition at 10 µM (CCRF-CEM): 46.1%; % Inhibition at 10 µM (HCT-116): 67.37 ± 0.67%; IC50 (HCT-116): 3.95 ± 0.82 µM; inhibition at 10 µM (IGROV1): 64.3%
Fc1cccc(CNc2c3ccccc3nc3ccccc23)c1F [Compound 20, Acridin-9-yl-(2,3-difluorobenzyl)-amine] | 60.8 | 40.30 ± 3.56 | 51.5 | 47.1 | 13 | 23.3 | 13.1 | 3.12 | 70.9 | 26.8 | 31.7 | 24 | 13.9 | -6.76 | 34.6 | 46.2 | 61.8 | 54.3 | 42.9 | 10.8 | inhibition at 10 µM (UACC-62): 24.3%; inhibition at 10 µM (NCI-H322M): 36.6%; inhibition at 10 µM (SNB-19): 41.5%; inhibition at 10 µM (MDA-MB-468): 78%; inhibition at 10 µM (MDA-MB-435): 12.7%; inhibition at 10 µM (MCF7): 70.2%; inhibition at 10 µM (HCT-15): 60.5%; inhibition at 10 µM (SF-268): 16.6%; inhibition at 10 µM (CCRF-CEM): 37.6%; % Inhibition at 10 µM (HCT-116): 58.56 ± 3.21%; IC50 (HCT-116): 4.96 ± 0.02 µM; inhibition at 10 µM (IGROV1): 47.3%
